Measured values taken from ChEMBL document CHEMBL1938230, “6-Position optimization of tricyclic 4-quinolone-based inhibitors of glycogen synthase kinase-3β: discovery of nitrile derivatives with picomolar potency” (Bioorg Med Chem Lett, 2012).

System: MAP4K2 (germinal center kinase) (Homo sapiens)
Assay: Inhibition of human GCK in HL-60 cells lysate assessed as reduction of labeling of acyl-phosphate ATP probe at 100 nM

Compound | inhibition [%]
C[C@H]1COc2c(NCCCc3ccccn3)c(F)c(N)c3c(=O)c(C(=O)O)cn1c23 | < 35
C[C@H]1COc2c(NCCCn3cccn3)c(F)c(N)c3c(=O)c(C#N)cn1c23 | < 35
